{"source": "patent US11613525B2", "about": "(CTXT PTY LIMITED, priority 2018, dated 2023)", "key": {"[1]": {"target": "T1, huSTING (WT) (Homo sapiens (Human), UniProt Q86WV6, H232R)", "assay": "THP-1 reporter cell line assay, THP-1-Dual KI-hSTING-R232 cells", "format": "cell-based", "conditions": "read-out: Cellular EC50 huSTING (WT)"}, "[2]": {"target": "huSTING (HAQ) (Homo sapiens (Human), UniProt Q86WV6, G230A/H232R/R293Q/R71H)", "sequence (Q86WV6 whole entry R71H/G230A/H232R/R293Q)": "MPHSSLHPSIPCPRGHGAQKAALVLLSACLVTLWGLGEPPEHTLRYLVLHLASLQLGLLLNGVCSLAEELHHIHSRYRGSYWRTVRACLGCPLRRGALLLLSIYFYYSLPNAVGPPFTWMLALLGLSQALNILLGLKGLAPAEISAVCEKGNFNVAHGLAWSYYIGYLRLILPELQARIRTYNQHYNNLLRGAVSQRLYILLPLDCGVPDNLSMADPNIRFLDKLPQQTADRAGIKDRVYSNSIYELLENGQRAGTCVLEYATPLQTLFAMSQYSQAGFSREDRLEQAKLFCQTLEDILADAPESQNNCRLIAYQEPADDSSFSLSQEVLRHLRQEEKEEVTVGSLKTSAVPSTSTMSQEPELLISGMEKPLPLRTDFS", "assay": "THP-1 reporter cell line assay, THP-1 STING Lucia ISG cells", "format": "cell-based", "conditions": "THP-1 STING Lucia ISG cells, read-out: Cellular EC50 huSTING (HAQ)"}, "[3]": {"target": "T2, human STING (HAQ) (Homo sapiens, UniProt Q86WV6, G230A/H232R/R293Q)", "T2 sequence (Q86WV6 whole entry G230A/H232R/R293Q, looked up)": "as the sequence (Q86WV6 whole entry R71H/G230A/H232R/R293Q) above, with H71R counted along it", "assay": "biochemical", "format": "binding"}, "[4]": {"target": "T2, human STING (HAQ)", "assay": "SPR (HAQ) 8° C.", "format": "binding", "conditions": "50% occupancy as surrogate KD, read-out: SPR huSTING (HAQ) KD at 8° C.", "description": "(§1) Binding interactions of ligands with STING proteins were quantified using Surface Plasmon Resonance (SPR) with a minimally biotinylated STING protein immobilized on Streptavidin chip surface.\n(§2) These were modified for compounds with longer residence times, so that curves could reach steady-state, or so that compound would be fully dissociated before the subsequent injection.\n(§3) For single-cycle kinetic experiments, sensorgrams were fit to a two-step kinetic model in which two analyte molecules bind sequentially (Biacore T200 or S200 Evaluation Software)."}, "[5]": {"target": "T1, huSTING (WT)", "assay": "Differential scanning fluorimetry (DSF), huSTING (WT)", "format": "binding", "conditions": "read-out: DSF huSTING (WT) ΔTm (° C.)"}, "[6]": {"target": "T2, human STING (HAQ)", "conditions": "read-out: SPR (HAQ) KD; 25° C."}, "[7]": {"target": "T1, huSTING (WT)", "assay": "SPR (WT) 8° C.", "format": "binding", "conditions": "read-out: SPR huSTING (WT) KD at 8° C.", "description": "as §1, §2, §3"}, "[8]": {"conditions": "modified method, top concentration 40 μM, pin tool, EnVision"}, "[9]": {"conditions": "compound 100 μM, protein concentration 2 μM"}, "[10]": {"conditions": "1 μM protein, compound at 100 μM"}}, "note": "pEC50, pKd: −log10 of the molar value. Like-named read-outs stand apart in the source and are kept apart here.", "data": [{"compound": "NC(=O)c1cc(F)c(OCc2c(C(=O)O)sc3cncc(Cl)c23)c(F)c1", "note": "[Example 171, Lithium 3-((4-carbamoyl-2,6-difluorophenoxy)methyl)-4-chlorothieno[2,3-c]pyridine-2-carboxylate]", "values": [{"measurement": "pEC50", "setting": "[1]", "result": "< 4.40"}, {"measurement": "pEC50", "setting": "[2]; [8]", "result": "< 4.40"}, {"measurement": "DSF huSTING (HAQ) ΔTm (° C.)", "setting": "[3]; [9]", "result": 9.33, "unit": "°C"}, {"measurement": "pKd", "setting": "[4]", "result": 5.31}]}, {"compound": "COc1nccc2sc(C(=O)O)c(COc3c(F)cc(C(N)=O)cc3CO)c12", "note": "[Example 172, 3-((4-Carbamoyl-2-fluoro-6-(hydroxymethyl)phenoxy)methyl)-4-methoxythieno[3,2-c]pyridine-2-carboxylic acid]", "values": [{"measurement": "pEC50", "setting": "[1]", "result": "< 4.40"}, {"measurement": "pEC50", "setting": "[2]; [8]", "result": "< 4.40"}, {"measurement": "DSF huSTING (HAQ) ΔTm (° C.)", "setting": "[3]; [9]", "result": 0.56, "unit": "°C"}, {"measurement": "pKd", "setting": "[4]", "result": 3.66}]}, {"compound": "COCc1cc(OCc2c(C(=O)O)sc3cccc(Cl)c23)ccc1C(N)=O", "note": "[Example 113, 3-((4-Carbamoyl-3-(methoxymethyl)phenoxy)methyl)-4-chlorobenzo[b]thiophene-2-carboxylic acid]", "values": [{"measurement": "pEC50", "setting": "[1]", "result": "< 4.40"}, {"measurement": "pEC50", "setting": "[2]; [8]", "result": "< 4.40"}, {"measurement": "DSF huSTING (HAQ) ΔTm (° C.)", "setting": "[3]; [9]", "result": 5.60, "unit": "°C"}, {"measurement": "pKd", "setting": "[4]", "result": 4.28}]}, {"compound": "NC(=O)c1ccc(OCc2c(C(=O)O)sc3cccc(F)c23)cc1Cl", "note": "[Example 50, 3-((4-Carbamoyl-3-chlorophenoxy)methyl)-4-fluorobenzo[b]thiophene-2-carboxylic acid]", "values": [{"measurement": "pEC50", "setting": "[1]", "result": "< 4.30"}, {"measurement": "pEC50", "setting": "[2]; 24 h, top concentration 50 μM", "result": "< 4.30"}, {"measurement": "DSF huSTING (HAQ) ΔTm (° C.)", "setting": "[3]; [10]", "result": 5.11, "unit": "°C"}, {"measurement": "ΔTm at 100 µM", "setting": "[5]", "result": 0.02, "unit": "°C"}, {"measurement": "pKd", "setting": "[6]", "result": 4.68}]}, {"compound": "COc1ncnc2sc(C(=O)O)c(COc3c(F)cc(C(N)=O)cc3F)c12", "note": "[Example 109, 5-((4-Carbamoyl-2,6-difluorophenoxy)methyl)-4-methoxythieno[2,3-d]pyrimidine-6-carboxylic acid]", "values": [{"measurement": "pEC50", "setting": "[1]", "result": "< 4.40"}, {"measurement": "pEC50", "setting": "[2]; [8]", "result": "< 4.40"}, {"measurement": "DSF huSTING (HAQ) ΔTm (° C.)", "setting": "[3]; [9]", "result": 8.60, "unit": "°C"}, {"measurement": "pKd", "setting": "[4]", "result": 3.80}, {"measurement": "pKd", "setting": "[7]", "result": 3.70}]}, {"compound": "Cc1ccc2sc(C(=O)O)c(COc3ccc(C(N)=O)cc3)c2c1Cl", "note": "[Example 18, 3-((4-Carbamoylphenoxy)methyl)-4-chloro-5-methylbenzo[b]thiophene-2-carboxylic acid]", "values": [{"measurement": "pEC50", "setting": "[1]", "result": "< 4.30"}, {"measurement": "pEC50", "setting": "[2]; 24 h, top concentration 50 μM", "result": "< 4.30"}, {"measurement": "DSF huSTING (HAQ) ΔTm (° C.)", "setting": "[3]; [10]", "result": 6.29, "unit": "°C"}, {"measurement": "ΔTm at 100 µM", "setting": "[5]", "result": -0.6, "unit": "°C"}, {"measurement": "pKd", "setting": "[6]", "result": 4.80}]}, {"compound": "Nc1noc2cc(OCc3c(C(=O)O)sc4cccc(Cl)c34)ccc12", "note": "[Example 48, 3-(((3-Aminobenzo[d]isoxazol-6-yl)oxy)methyl)-4-chlorobenzo[b]thiophene-2-carboxylic acid]", "values": [{"measurement": "pEC50", "setting": "[1]", "result": "< 4.30"}, {"measurement": "pEC50", "setting": "[2]; 24 h, top concentration 50 μM", "result": "< 4.30"}, {"measurement": "DSF huSTING (HAQ) ΔTm (° C.)", "setting": "[3]; [10]", "result": 1.92, "unit": "°C"}, {"measurement": "ΔTm at 100 µM", "setting": "[5]", "result": -4.63, "unit": "°C"}, {"measurement": "pKd", "setting": "[6]", "result": 4.79}]}]}
